Where two headings read alike, the source gives them in different places.
Columns and labels:
[1] = target: T1, calf thymus topoisomerase I (Bos taurus, UniProt F1MN93); conditions: for PERCENTAGE OF RELAXED DNA: relaxed DNA with respect to total DNA, pUC 19, 37° C. 15 min
T1 sequence (F1MN93 1-767): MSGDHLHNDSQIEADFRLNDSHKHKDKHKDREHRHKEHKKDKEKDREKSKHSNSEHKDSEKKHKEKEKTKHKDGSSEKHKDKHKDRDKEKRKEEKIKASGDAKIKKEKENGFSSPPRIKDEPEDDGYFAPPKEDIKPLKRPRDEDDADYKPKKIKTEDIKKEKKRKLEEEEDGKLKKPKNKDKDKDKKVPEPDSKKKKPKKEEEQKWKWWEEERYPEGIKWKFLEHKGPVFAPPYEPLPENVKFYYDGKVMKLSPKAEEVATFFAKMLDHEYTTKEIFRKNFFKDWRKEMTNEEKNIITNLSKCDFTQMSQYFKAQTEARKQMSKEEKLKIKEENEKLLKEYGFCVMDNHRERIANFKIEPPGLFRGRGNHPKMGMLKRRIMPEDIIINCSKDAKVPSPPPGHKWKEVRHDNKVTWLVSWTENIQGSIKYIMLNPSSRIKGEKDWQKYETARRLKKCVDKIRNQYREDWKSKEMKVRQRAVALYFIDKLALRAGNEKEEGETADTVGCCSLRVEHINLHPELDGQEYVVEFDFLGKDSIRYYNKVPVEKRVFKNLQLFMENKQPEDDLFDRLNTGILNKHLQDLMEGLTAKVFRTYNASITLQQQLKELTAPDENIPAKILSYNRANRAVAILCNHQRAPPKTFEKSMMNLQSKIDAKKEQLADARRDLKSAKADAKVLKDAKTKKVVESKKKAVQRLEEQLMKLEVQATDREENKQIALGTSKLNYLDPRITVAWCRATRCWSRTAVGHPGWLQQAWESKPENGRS
Experimental: 1. Inhibition test of the relaxation of supercoiled DNA induced by topoisomerase I.
Supercoiled plasmidic DNA (pUC 19, Pharmacia Biotech, Orsay, France, 300 ng) is incubated at 37° C. for 15 min in the presence of calf thymus topoisomerase I (Gibco-BRL, Paisley, United Kingdom, 1 unit) in 20 μl of reaction buffer (Tris-HCl pH 7.5:50 mM, KCl: 50 mM, DTT: 0.5 mM, MgCl2: 10 mM, EDTA: 0.1 mM, bovine serum albumin: 0.030 mg/ml) and of a potentiel inhibitor (prepared in a 50 mM extemporaneous solution in dimethylsulphoxide, then diluted with distilled water in order to obtain a final concentration of 500 μM, 200 μM, 100 μM or 10 μM, not exceeding 1% of dimethylsulphoxide). The reaction is stopped by the addition of 3 μl of a denaturing solution (proteinase K: 500 μg/ml, sodium dodecylsulphate: 1%, EDTA: 20 mM) followed by incubation at 37° C. for 30 min, then 2 μl of a loading buffer (bromophenol blue: 0.3%, sodium hydrogen phosphate: 10 mM, polysucrose Ficoll®-400: 16%) are added and the sample is placed on a 1.2% agarose gel (Sea-Kem-GTG, FMC Bioproducts/Tebu, Perray-en-Yvelines, France) containing 2 μg/ml of chloroquine. The electrophoretic migration is carried out at a voltage of 1V/cm for 20 hours, with recirculation of the electrophoresis buffer (Tris-HCl: 36 mM, sodium dihydrogen phosphate: 30 mM, EDTA: 1 mM). The gel is then stained under agitation with 2 μg/ml ethidium bromide, then photographed under ultraviolet light at 312 nm (CCD camera Vilber-Lourmat, Lyon, France). Densitometric analysis (BioProfil image analyzer Vilber-Lourmat, Lyon, France) allows the percentage of relaxed DNA with respect to total DNA to be expressed, at the chosen concentration of inhibitor.

topoisomerase II = conditions: for PERCENTAGE OF RELAXED DNA: relaxed DNA with respect to total DNA, pUC 19, 37° C. 15 min
Experimental: 2. Inhibition test of the relaxation of supercoiled DNA induced by topoisomerase II.
Supercoiled plasmidic DNA (pUC 19, Pharmacia Biotech, Orsay, France, 300 ng) is incubated at 37° C. for 15 min in the presence of calf thymus […] (Gibco-BRL, Paisley, United Kingdom, 7 units) in 20 μl of reaction buffer (Tris-HCl pH 7.9: 10 mM, KCl: 50 mM, NaCl: 50 mM, MgCl2: 5 mM, ATP: 1 mM, EDTA: […], bovine serum albumin: 15 mg/ml) and of a potential inhibitor (prepared in a 50 mM extemporaneous solution in dimethylsulphoxide, then diluted with distilled water in order to obtain a final concentration of 500 μM, 200 μM, 100 μM or 10 μM, not exceeding 1% of dimethylsulphoxide). The reaction is stopped by the addition of 3 μl of a denaturing solution (proteinase K: 500 μg/ml, sodium dodecylsulphate: 1%, EDTA: 20 mM) followed by incubation at 37° C. for 30 min, then 2 μl of a loading buffer (bromophenol blue: 0.3%, sodium hydrogen phosphate: 10 mM, polysucrose Ficoll®-400: 16%) are added and the sample is placed on a 1.2% agarose gel (Sea-Kem-GTG, FMC Bioproducts/Tebu, Perray-en-Yvelines, France) containing 2 μg/ml of chloroquine. The electrophoretic migration is carried out at a voltage of 1V/cm for 20 hours, with recirculation of the electophoresis buffer (Tris-HCl: 36 mM, sodium dihydrogen phosphate: 30 mM, EDTA: 1 mM). The gel is then stained under agitation with 2 μg/ml ethidium bromide, then photographed under ultraviolet light at 312 nm (CCD camera Vilber-Lourmat, Lyon, France). Densitometric analysis (BioProfil image analyzer Vilber-Lourmat, Lyon, France) allows the percentage of relaxed DNA with respect to the total DNA to be expressed, at the chosen concentration of inhibitor.

[2] = at concentrations greater than 10 μM

`CC[C@@]1(O)C(=O)OCc2c1cc1n(c2=O)Cc2cc3ccccc3nc2-1` [Camptothecin] was tested, and the “PERCENTAGE OF RELAXED DNA” value ([1]; inhibitor concentration 10 μM) was 95.5 ± 1.4%, the “PERCENTAGE OF RELAXED DNA” value ([1]; inhibitor concentration 100 μM) was 64.2 ± 6.1% and the “PERCENTAGE OF RELAXED DNA” value ([1]; inhibitor concentration 200 μM) was 60.6 ± 12.0%. For the same compound, the “PERCENTAGE OF RELAXED DNA” value ([1]; inhibitor concentration 500 μM) was 55.6 ± 8.8%.
With `COc1cc([C@@H]2c3cc4c(cc3[C@@H](O[C@@H]3O[C@@H]5CO[C@@H](C)O[C@H]5[C@H](O)[C@H]3O)[C@H]3COC(=O)[C@H]23)OCO4)cc(OC)c1O` [Etoposide, reference compound] the “PERCENTAGE OF RELAXED DNA” value (topoisomerase II; inhibitor concentration 10 μM) was 92.6 ± 2.5%, the “PERCENTAGE OF RELAXED DNA” value (topoisomerase II; inhibitor concentration 100 μM) was 28.5 ± 2.2% and the “PERCENTAGE OF RELAXED DNA” value (topoisomerase II; inhibitor concentration 200 μM) was 18.6 ± 1.4%. The “PERCENTAGE OF RELAXED DNA” value (topoisomerase II; inhibitor concentration 500 μM) was 12.0 ± 0.8%.
`CCC(O)(CC(=O)O)c1cc2n(c(=O)c1)Cc1cc3ccccc3nc1-2` (stereo not drawn) [Example 6, 3-Hydroxy-3-(4-oxo-4,6-dihydroindolizino[1,2-b]quinoline-2-yl)pentanoic Acid] was tested, and the “inhibition of topoisomerase I compared with camptothecin” value [1, 2] was “better inhibitor of topoisomerase I than camptothecin”, the “PERCENTAGE OF RELAXED DNA” value ([1]; inhibitor concentration 10 μM) was 95.2 ± 2.8% and the “PERCENTAGE OF RELAXED DNA” value ([1]; inhibitor concentration 100 μM) was 28.5 ± 3.5%. The “PERCENTAGE OF RELAXED DNA” value ([1]; inhibitor concentration 200 μM) was 15.5 ± 3.6%, the “PERCENTAGE OF RELAXED DNA” value ([1]; inhibitor concentration 500 μM) was 10.3 ± 2.8% and the “inhibition of topoisomerase II compared with etoposide” value (topoisomerase II; [2]) was “better inhibitor of topoisomerase II than etoposide”. The “PERCENTAGE OF RELAXED DNA” value (topoisomerase II; inhibitor concentration 10 μM) was 98.8 ± 0.4%, the “PERCENTAGE OF RELAXED DNA” value (topoisomerase II; inhibitor concentration 100 μM) was 9.9 ± 0.7% and the “PERCENTAGE OF RELAXED DNA” value (topoisomerase II; inhibitor concentration 200 μM) was 11.5 ± 1.9%. For the same compound, the “PERCENTAGE OF RELAXED DNA” value (topoisomerase II; inhibitor concentration 500 μM) was 6.5 ± 1.0%.

Reference: US6632946B2, “Tetracyclic analogues of camptothecins, their preparation processes, their use as medicaments and the pharmaceutical compositions containing them” (Societe de Conseils de Recherches et d'Applications …, priority 1997, dated 2003)
